Results as given in US5015629A, “Tissue repair” (University of Southern California, priority 1990, dated 1991).

System: bovine endothelial cells
Type: cell-based
Method: In a second example, the effects of angiotensin II on proliferation (mitogenesis) and directional migration (chemotaxis) of endothelial cells were determined. In this regard, it is important to consider that tissue repair requires proper neovascularization, and that new blood vessel growth for wound repair requires endothelial cell replication, migration and orientation. Wound healing factors must be able to stimulate chemotaxis and cell proliferation in addition to initiating new blood vessel growth. The proliferation (mitogenesis) and the directional orientation of such cells (chemotaxis) was studied in vitro using bovine aortal endothelial cells. […] Background radioactivity (noncell-associated) was assessed by removing some filters immediately after the addition of cells prior to cellular migration, and processing these control filters the same way as the test filters. […] The latter was calculated by the following formula: [formula] where R equals the radioactivity in cpm associated with each test filter, B equals the cpm obtained from the background filters, T equals the cpm obtained from a volume (V) of cells in suspension at a known concentration (C) and S equals the cpm obtained from the cell supernate (noncellular, or unbound radioactivity). […]

CC[C@H](C)[C@H](NC(=O)[C@H](Cc1ccc(O)cc1)NC(=O)[C@@H](NC(=O)[C@H](CCCNC(=N)N)NC(=O)[C@@H](N)CC(=O)O)C(C)C)C(=O)N[C@@H](Cc1c[nH]cn1)C(=O)N1CCC[C@H]1C(=O)N[C@@H](Cc1ccccc1)C(=O)O [angiotensin II]
ED50 of chemotaxis: 3 nanogram/ml
